Data reported in publication PMC9948614, “Structural and functional properties of the Kunitz-type and C-terminal domains of Amblyomin-X supporting its antitumor activity” (Frontiers in Molecular Biosciences, 2023).
Like-named read-outs stand apart in the source and are kept apart here. No end group written: not given here.

Assays:
SK-MEL-28 [1] = experiment: MTT cell viability assay; details: 48 h
Procedure: (§1) Cell viability was measured by 3-(4,5-dimethylthiazol-2-yl)-2,5-diphenyltetrazolium bromide (MTT) assay, as described elsewhere ([Morais et al., 2016]). […] After 48h, 10% of 5 mg/ml MTT was added to the cells and the plates were incubated for 3 h at 37 °C. Afterward, the medium was discarded, the dark blue formazan crystalline product was dissolved in 100 µL dimethyl sulfoxide (DMSO), and the absorbance was measured in a Spectra MAX 190 microplate reader (Molecular Devices, Sunnyvale, United States) at 540 nm.
(§2) Amblyomin-X (50 μM) were used for comparative purpose. Besides, staurosporine (5 μM), MG-132 (3 μM) and bortezomib (80 nM) were used as a positive control.

MIA PaCa-2 [2] = experiment: MTT cell viability assay; assay type: cell-based, human; details: 48 h
Procedure: as §1, §2

SK-MEL-28 [3] = details: for Vesicles counts: SK-MEL-28, Alexa-Fluor 488-labeled molecule 20 µM, 37°C, ImageXpress Micro Confocal, mean ± SD of three independent experiments
Procedure: (§3) An additional step was carried out for the purification of peptides using FPLC. SK-MEL-28 and MIA PaCa-2 (10^5 cells/well) were seeded on sterile 35 mm culture dishes. First, a cell-based assay using fluorochrome conjugated molecules was carried by incubation with Amblyomin-X and its synthetic domains (20 µM) in a fresh medium at 37°C for 4 h and nuclei were stained with […] Syto59 (Invitrogen Life Technologies Inc., United States). Then red and green fluorescence were monitored by LSM 510 Meta confocal microscope (Zeiss, Jena, Germany). […] After treatment with synthetic fragments (all at 5 µM) in a fresh medium at 37°C for 4h, tumor cells were scanned on the x-, y-, and z-axes using a confocal microscope TCS SP8 (Leica Microsystems, GmbH Mannheim, DE) with 40x/1.1 objective lens and laser excitation at 405 and 488 nm with additional brightfield channel using the LAS X software (Leica Microsystems, GmbH Mannheim, DE). The images were deconvolved in Huygens Essential version 22.04 (Scientific Volume Imaging, Netherlands).
(§4) Following the same rationale, after treatment, cells were incubated with Alexa Fluor 555 TrF (100 μg/ml), Alexa Fluor 555 CTxB (50 μg/ml) or Alexa Fluor 555 dextran (1 mg/ml) in the binding medium at 37 °C for 20 min. Also, to evaluate cargo-delivery ability of C-ter, tumor cells were incubated with p15 (100 μM) or this molecule conjugate to C-ter (100 μM) for 4 h. […] Finally, evaluation of C-ter derived fragments (all at 10 μM) were investigated after 4 h of treatment.
(§5) In all 96 wells plate assays, nuclei were stained with Hoechst 33342 and fluorescence was monitored by a Molecular Devices ImageXpress Micro Confocal plate-scanning microscope (Molecular Devices, Sunnyvale, CA). Vesicles count were analyzed using MetaXpress software (Molecular Devices, CA) with Transfluor Application Module.

MIA PaCa-2 [4] = details: MIA PaCa-2, Alexa-Fluor 488-labeled molecule 20 µM, 37°C, ImageXpress Micro Confocal, Transfluor module, mean ± SD of three independent experiments
Procedure: as §3, §4, §5

SK-MEL-28 [5] = experiment: Cellular uptake by confocal laser scanning microscopy; details: SK-MEL-28, Alexa Fluor 488-labeled molecule 20 µM, 4 h, 37°C
Procedure: as §3

SK-MEL-28 [6] = details: for Uptake of fluorescent (FITC) peptide by cells: SK-MEL-28, 5 or 10 µM, 6 h, ImageXpress Micro Confocal / confocal TCS SP8
Procedure: An additional step was carried out for the purification of peptides using FPLC. SK-MEL-28 and MIA PaCa-2 (10^5 cells/well) were seeded on sterile 35 mm culture dishes. […] […] The images were deconvolved in Huygens Essential version 22.04 (Scientific Volume Imaging, Netherlands).
Following the same rationale, after treatment, cells were incubated with Alexa Fluor 555 TrF (100 μg/ml), Alexa Fluor 555 CTxB (50 μg/ml) or Alexa Fluor 555 dextran (1 mg/ml) in the binding medium at 37 °C for 20 min. Also, to evaluate cargo-delivery ability of C-ter, tumor cells were incubated with p15 (100 μM) or this molecule conjugate to C-ter (100 μM) for 4 h. […]
as §5

dynein chains = experiment: Gene expression of dynein chains by real-time PCR; assay type: cell-based, human
Procedure: Gene expression was evaluated via quantitative real-time polymerase chain reaction (qPCR) according to standard protocols previously reported by our group ([Pacheco et al., 2014]; [Morais et al., 2016]). Briefly, after cell treatment, the total RNA was extracted using the RNeasy kit (Qiagen, Netherlands) followed by DNase treatment, Then, cDNA strands were constructed using a SuperScript® III First-Strand Synthesis kit (InvitrogenTM, Life Technologies Inc., United States), according to manufacturer’s instructions. Finally, the samples were applied in a SYBR® green (Applied Biosystems, United States)-based reaction with specific and validated primers to evaluate mRNA levels of genes coding for dynein chains. RNA levels were normalized to glyceraldehyde 3-phosphate dehydrogenase (GAPDH) and quantified using the Livak 2^−ΔΔCT method ([Livak and Schmittgen, 2001]). The experiments were conducted by Step One Plus® PCR real-time system (Applied Biosystems, United States).

SK-MEL-28 [7] = experiment: Microinjection assay, cell death by PI staining; assay type: cell-based, human; details: SK-MEL-28, microinjection of 488-labeled molecule, both 20 µM, 4 h; about 50 cells per condition
Procedure: SK-MEL-28 cells were plated on glass Cellocate coverslips for 24 h before injection. […] Staurosporine (10 µM) was added directly to the medium for 6 h and was used as a control for PI staining. Ctrl cells were maintained in a culture medium. The solution was injected into the cytoplasm an average of 50 cells for each condition (compensation pressure: 30 hPa; injection pressure: 100 hPa; injection time: 0.3 s). Immediately after injection, cells were replaced with fresh medium in the incubator at 37 °C. After 4 h, cells were stained with PI (1 μg/ml – contain RNAse A 100 ng/ml) for 15 min at r.t.. Then, cells were washed twice with 1X PBS and fixed with 4% paraformaldehyde for 15 min at r.t... Finally, cells were washed with 1X PBS and one drop of solution anti-fade mounting Vectashield® (Vecta Labs) was applied on the slide with the coverslip containing the cells facing down and, then, sealed. The analysis was performed in Leica SP8 confocal microscope (Leica, Germany): Green fluorescence was used to identify microinjected cells and red fluorescence to score cell death.

FXa = target: T1, FXa (Homo sapiens, UniProt P00742); experiment: FXa activity assay, chromogenic substrate S-2765; assay type: biochemical; details: FXa 40 nM, 30 min 37 °C, 20 mM Tris–HCl, PS/PC 2 µM, 5 mM CaCl2, pH 8.0, S-2765 200 µM, 405 nm
T1 construct: the active factor X (FXa)
Procedure: Supplementary material 1 - FXa activity assays - FXa (40 nM) was incubated with varying concentrations of the Amblyomin-X recombinant protein and the synthetic domains for 30 min at 37 °C in 20 mM Tris–HCl containing PS/PC (2 µM) and 5 mM CaCl2, pH 8.0. Cleavage of the chromogenic substrate S-2765 (200µM, Chromogenix, UK) was monitored at 405 nm (SpectraMax 190, Molecular Devices, USA). The percentage of inhibition was determined from the residual activity of the enzymes as previously reported15, 16.

[8] = SK-MEL-28, synthetic domains 0.2–100 μM
[9] = MIA PaCa-2, synthetic domains 0.2–100 μM
[10] = tumor cells, other fragments and TAT-Kunitz data not shown

T1 sequence (P00742 235-488 limits assumed): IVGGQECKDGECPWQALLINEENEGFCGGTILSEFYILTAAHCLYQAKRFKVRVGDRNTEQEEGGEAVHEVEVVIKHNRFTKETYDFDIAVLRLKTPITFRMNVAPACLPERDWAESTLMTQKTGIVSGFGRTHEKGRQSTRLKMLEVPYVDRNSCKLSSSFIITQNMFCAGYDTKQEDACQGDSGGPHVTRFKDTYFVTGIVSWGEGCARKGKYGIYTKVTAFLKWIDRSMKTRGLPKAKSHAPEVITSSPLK
T1 sequence (P00742 41-179 partner limits assumed): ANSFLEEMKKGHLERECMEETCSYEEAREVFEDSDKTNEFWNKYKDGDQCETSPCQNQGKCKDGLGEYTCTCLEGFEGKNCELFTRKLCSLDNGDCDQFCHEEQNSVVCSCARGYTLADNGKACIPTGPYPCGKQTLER

C^#WMSPRHLGT C^#EEQTHFHFESPKLISFKVQDYWILNDIMKKNLTGISLKSEEEDADSGEID (disulfide) [p15-C-ter]
Effect on cell viability (MTT) (SK-MEL-28 [1]; SK-MEL-28, 100 μM): decreased cell viability
Effect on cell viability (MTT) (MIA PaCa-2 [2]; MIA PaCa-2, 100 μM): decreased cell viability
Internalization relative to the non-conjugated molecule (p15) (SK-MEL-28 [3]): eight-fold more internalized

EEQTHFHFESPKLIFKVQDYWILNDIMKKNLTGISLKSEEEDADSGEID [C-ter, Synthetic C-terminal domain of Amblyomin-X, fragment 58-106 with cysteine 67 mutated to Serine]
Effect on cell viability (MTT) (SK-MEL-28 [1]; [8]): no alteration
Effect on cell viability (MTT) (MIA PaCa-2 [2]; [9]): no alteration
Vesicles counts (MIA PaCa-2 [4]; 0.25 h): 4.36 ± 2.03
Vesicles counts (MIA PaCa-2 [4]; 0.5 h): 17.50 ± 24.63
Vesicles counts (MIA PaCa-2 [4]; 1 h): 10.59 ± 7.15
Vesicles counts (MIA PaCa-2 [4]; 2 h): 171.11 ± 248.57
Vesicles counts (MIA PaCa-2 [4]; 4 h): 802.63 ± 353.12
Vesicles counts (SK-MEL-28 [3]; 0.25 h, MetaXpress Transfluor module): 30.84 ± 17.2
Vesicles counts (SK-MEL-28 [3]; 0.5 h, Transfluor module): 35.56 ± 21.09
Vesicles counts (SK-MEL-28 [3]; 1 h, Transfluor module): 62.17 ± 11.20
Vesicles counts (SK-MEL-28 [3]; 2 h, Transfluor module): 558.48 ± 189.00
Vesicles counts (SK-MEL-28 [3]; 4 h, Transfluor module): 1210.74 ± 379.14
Uptake by cells (green fluorescence, confocal) (SK-MEL-28 [5]): uptaken
Uptake of fluorescent (FITC) peptide by cells (SK-MEL-28 [6]): uptaken
Cells counts per well (SK-MEL-28 [6]; SK-MEL-28, fluorescent peptides 10 µM, all treatments investigated): No alterations in cells counts
Gene expression of dynein chains (dynein chains; [10]): modulated gene expression of dynein chains

GRKKRRQRRRPPQANSKAVCNLPKLAGDETCSNKTEIRWYYNGTACEAFIFKGCGGNDNNFDRVDDCQRLC-NH2 (also: bicyclic or more (positions not given here)) [TAT-Kunitz]
Cytotoxicity (MTT) (SK-MEL-28 [1]; TAT-Kunitz at 20 and 50 μM, cell line not stated at the place (Figure 7B)): significant cytotoxicity activity

FKVQDYWILNDIMKKNLTGI* [F2C, C-ter derived fragment 16-35, minimum length C-terminal domain able to enter SK-MEL-28 cells]
Relative fluorescence units (RFU) compared with other peptides (SK-MEL-28 [6]; SK-MEL-28, 10 µM, even in short times of treatment): higher values of relative fluorescence units (RFU)
Uptake of fluorescent (FITC) peptide by cells (SK-MEL-28 [6]): detected in the cell
Gene expression of dynein chains (dynein chains; SK-MEL-28, 5 µM, 24 h, real-time PCR, normalized to GAPDH): modulate gene expression of all dynein chains evaluated
Gene expression of dynein chains (dynein chains; [10]): modulated gene expression of dynein chains

ANSKAVCNLPKAGDETCSNKTEIRWYYNGTACEAFIFKGCGGNDNNFDRVDDCQRLC-NH2 (also: bicyclic or more (positions not given here)) [Kunitz]
Effect on cell viability (MTT) (SK-MEL-28 [1]; [8]): no alteration
Effect on cell viability (MTT) (MIA PaCa-2 [2]; [9]): no alteration
Number of vesicles relative to complete Amblyomin-X (SK-MEL-28 [3]): ten-fold less
Uptake by cells (green fluorescence, confocal) (SK-MEL-28 [5]): not detected inside the cells
Propidium iodide (PI) staining after microinjection (SK-MEL-28 [7]): 26%
Inhibitory activity against FXa (FXa): lower inhibitory activity against FXa than TFPI-K2
